From patent publication US10413583B2, “Synthetic substrates for enzymes that catalyze reactions of modified cysteines and related methods” (The University of Chicago, priority 2016, dated 2019)

Key:
[1] = molecular target: T1, APT2 (Homo sapiens, UniProt O95372); assay: In vitro kinetic assays of RDP-1 and RDP-2 with APT2; format: biochemical; settings: 1 μM probe, 200 nM enzyme, 20 min
T1 construct: His-tag; made in house; host or cells: E. coli ROSETTA DE3
Procedure: (§1) 100 μL of 400 nM of APT1 or APT2, or buffer without added enzymes, were added to buffer (20 mM HEPES, 150 mM NaCl, 0.1% Triton X-100, pH 7.4, degassed by bubbling N2 through the solution for 1 h) and prewarmed to 37° C. in a heating block for 5 min. The buffer solutions were then added using a multichannel pipet to a black-walled clear-bottom 96-well plate (Nunc, Roskilde, Denmark) containing 100 μL of 2 μM RDP-1 or RDP-2 in buffer (20 mM HEPES, 150 mM NaCl, 0.1% Triton X-100, pH 7.4, 0.15% DMSO) that had been pre-warmed in the plate reader at 37° C. for 5 min, resulting in a final concentration of 200 nM APT1 or APT2, 1 μM RDP-1 or RDP-2, and 0.1% DMSO. Fluorescent intensities λex1=430/24 nm, λem1=470/24 nm; λex2=480/20, λem2=575/40; gain=75; No. of flashes=8) were obtained as a ratio of em1/em2 in kinetic mode in 30 s intervals for 30 min.

[2] = Stability of RDP-1 and RDP-2 with biological reductant (GSH); format: physicochemical; settings: 1 μM probe, 20 mM GSH, pH 7.4 buffer
Procedure: RDP-1 or RDP-2 were added to buffer (20 mM HEPES, 150 mM NaCl, 0.1% Triton X-100, pH 7.4, degassed by bubbling N2 through the solution for 1 h) prewarmed to 37° C. in a heating block for 5 min containing no reducing agent or GSH using a multichannel pipet to at least three wells of a black-walled clear-bottom 96-well plate (Nunc, Roskilde, Denmark; Final concentration: 1 μM RDP-1/RDP-2, 20 mM GSH, 20 mM HEPES, 150 mM NaCl, 0.1% Triton X-100, pH 7.4, 4.1% DMSO). Fluorescent intensities (λex1=430/25 nm, λeml=470/24 nm; λex2=480/20, λem2=575/40; gain=75; No. of flashes=10) were obtained as a ratio of em1/em2 in kinetic mode in 30 s intervals for 30 min.

[3] = molecular target: T2, APT1 (Homo sapiens, UniProt O75608); assay: In vitro kinetic assays of RDP-1 and RDP-2 with APT1; format: biochemical; settings: 1 μM probe, 200 nM enzyme, 20 min
T2 construct: His-tag; made in house; host or cells: E. coli ROSETTA DE3
Procedure: as §1

[4] = system: HEK293T cells; assay: Fluorescence imaging of RDP-1 and RDP-2 with HEK293T cells; format: cell-based, human; settings: 1 μM probe for 10 min
Procedure: HEK293T were plated with […] of DMEM (Gibco, Gaithersburg, Md., United States of America; High Glucose, Glutamax, 10% FBS) a four well chambered imaging dish (D35C4-20-1.5-N, Cellvis, Mountain View, Calif., United States of America) which were precoated with 4 μg Poly-D-lysine (30-70 kilodalton (KDa), Alfa Aesar, Haverhill, Mass., United States of America) for 2 h at room temperature or overnight at 4° C. and grown to ca. 80% confluence prior to imaging. 30 min before the addition of the RDP, the cell culture media was removed and cells were washed with 500 μL of serum-free DMEM (Gibco, Gaithersburg, Md., United States of America, High Glucose, Glutamax, no FBS). The media was then replaced with 500 μL of serum-free DMEM containing 100 nM Mitotracker Deep Red (Thermo Fisher Scientific, Waltham, Mass., United States of America; to assist in focusing and processing) and either 0.1% DMSO carrier as a control or Palm B, ML348, or ML349 in DMSO and incubated for 30 min at 37° C. and 5% CO2. The media was removed, the cells were washed with 500 μL of Live Cell Imaging Solution (Thermo Fisher Scientific, Waltham, Mass., United States of America), and 500 μL of 1 μM RDP-1 or RDP-2 along with the appropriate inhibitor or DMSO as control in Live Cell Imaging Solution was added to each well. After incubation for 10 min at 37° C. and 5% CO2, the cells were washed with 500 μL Live Cell Imaging Solution and 500 μL of Live Cell Imaging Solution containing DMSO or the appropriate inhibitor was added to the cells immediately before images were obtained on an inverted epi-fluorescence microscope (Olympus IX83; Olympus Corporation, Tokyo, Japan) attached with EMCCD camera (Photometrics EVOLVE™ Delta; Photometrics, Tucson, Ariz., United States of America) with 40× oil objective (N/A 1.3) for RDP-1 (excitation filter 1 430/24 nm, dichroic chroma 89007, emission filter 1 470/24 nm, exposure time 100 ms, EM gain 80, excitation filter 2 480/20 nm, dichroic chroma 49014, emission filter 2 575/40 nm, exposure time 70 ms, EM gain 50) or for RDP-2 (excitation filter 1 430/24 nm, dichroic chroma 89007, emission filter 1 470/24 nm, exposure time 70 ms, EM gain 50, excitation filter 2 480/20, dichroic chroma 49014, emission filter 2 575/40 nm, exposure time 50 ms, EM gain 30), brightfield (exposure time 50 ms, EM gain 30), and MitoTracker Deep Red: (excitation filter 640/30 nm, emission filter 705/72 nm, dichroic chroma 89016, exposure time 15 ms, EM gain 15). Analyses were performed in ImageJ as described below. Each experiment was repeated at least three separate times with identical results.
The probe channel data were expressed as a ratio of the blue channel divided by the green channel and normalized to the average fluorescence intensity of the control conditions. To eliminate errors from autofluorescence, the images were thresholded using the bluer channel images at the same minimum level that included the maximum number of cells in focus (as determined visually by the mitocondrial dye) while limiting the signal from areas where cells are not present. The average value of all nonzero pixels from the blue channel:green channel ratio image were calculated in ImageJ for three different measurements from each experiment. The percent deprotected was estimated by imaging RDP-1/2 in buffer (20 mM HEPES, 150 mM NaCl, 0.1% Triton X-100, pH 7.4, 0.1% DMSO) and for dye deprotected with 20 mM DTT in buffer (20 mM HEPES, 150 mM NaCl, 0.1% Triton X-100, pH 7.4, 0.1% DMSO) for 1 h at room temperature before aliquoted into individual tubes and stored at −80° C. A fresh aliquot of the solution was thawed for each experiment and diluted to 250 nM (RDP-1) or 500 nM (RDP-2) in buffer (20 mM HEPES, 150 mM NaCl, 0.1% Triton X-100, pH 7.4, 10 mM DTT) and allowed to equilibrate for 30 m before being imaged. […]

[5] = system: catalytically inactive APTs (APT1(S119A), APT2(S122A)); assay: In vitro kinetic assays of RDP-1 and RDP-2 with catalytically inactive enzymes; format: biochemical, human; settings: 10 times more APT1(S119A) and APT2(S122A) enzyme

T1 sequence (O95372 whole entry): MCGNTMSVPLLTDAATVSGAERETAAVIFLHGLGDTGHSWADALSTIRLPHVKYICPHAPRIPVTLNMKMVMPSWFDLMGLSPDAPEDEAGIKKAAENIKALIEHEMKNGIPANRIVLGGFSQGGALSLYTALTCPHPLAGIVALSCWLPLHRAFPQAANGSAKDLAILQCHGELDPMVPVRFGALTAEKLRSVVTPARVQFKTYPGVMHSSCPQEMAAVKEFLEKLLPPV
T2 sequence (O75608 whole entry): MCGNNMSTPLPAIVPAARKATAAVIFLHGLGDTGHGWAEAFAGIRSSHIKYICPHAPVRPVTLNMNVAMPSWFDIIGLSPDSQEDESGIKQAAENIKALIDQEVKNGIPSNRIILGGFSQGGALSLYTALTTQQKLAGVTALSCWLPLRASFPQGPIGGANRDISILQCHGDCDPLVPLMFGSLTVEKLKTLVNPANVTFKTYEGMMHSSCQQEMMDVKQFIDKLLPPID

| SMILES | ratio change of ratiometric response [1] | response to 20 mM glutathione [2] | ratio change of ratiometric response [3] | depalmitoylation of probe (percent deprotected dye) [4] | response to catalytically inactive APTs [5] |
| --- | --- | --- | --- | --- | --- |
| CCCCCCCC(=O)SC[C@@H](C(=O)NC)N(C)C(=O)/C(C#N)=C/c1c(C)c2cc3c4c(c2oc1=O)CCCN4CCC3 [RDP-1, (2E)-2-cyano-N-methyl-3-{6-methyl-4-oxo-3-oxa-13-azatetracyclo[7.7.1.0^2,7.0^13,17]heptadeca-1,5,7,9(17)-tetraen-5-yl}-N-[(1R)-1-(methylcarbamoyl)-2-(octanoylsulfanyl)ethyl]prop-2-enamide] | 0.7 to 34 | Neither RDP-1 nor RDP-2 responds | 0.7 to 34 | about 28% | Neither RDP-1 nor RDP-2 responds |
| CCCCCCCC(=O)SC[C@@H](C(=O)N[C@@H](CCCCN)C(=O)OC)N(C)C(=O)/C(C#N)=C/c1c(C)c2cc3c4c(c2oc1=O)CCCN4CCC3 [RDP-2, (5S)-5-[(2R)-2-[(2E)-2-cyano-N-methyl-3-{6-methyl-4-oxo-3-oxa-13-azatetracyclo[7.7.1.0^2,7.0^13,17]heptadeca-1,5,7,9(17)-tetraen-5-yl}prop-2-enamido]-3-(octanoylsulfanyl)propanamido]-6-methoxy-6-oxohexan-1-aminium] | 1.9 to 16 | Neither RDP-1 nor RDP-2 responds | 1.9 to 16 | ~18% | Neither RDP-1 nor RDP-2 responds |
